Experimental data from patent publication US9975944B2, “Synthetic peptides for the treatment of autoimmune diseases” (TEL HASHOMER MEDICAL RESEARCH INFRASTRUCTURE AND SERVICES …, priority 2013, dated 2018).

What was measured:
anti cit-collagen ACPA = assay: Peptide inhibition assay in ELISA, plates coated with cit-collagen; parameters: species or system human; details: sera of ACPA-positive RA patients diluted to about 50% binding OD, 2 h preincubation at room temperature
Method: (§1) Peptide inhibition assay in ELISA was used to confirm the cross-reactivity of the Cit-ME peptide to the following anti-citrullinated protein antibodies (ACPA): anti citrullinated filaggrin, anti cit-β-fibrinogen, anti cit-collagen and anti cit-vimentin. Sera were obtained from ACPA RA patients and samples with highly positive ACPA levels were selected (≥100 U/ml) using commercial CCP ELISA test (INOVA). ELISA test was performed with each of the citrullinated peptides: cit-filaggrin (HQCHQESTCitGRSRGRCGRSGS) set forth in SEQ ID NO: 3, cit-β-fibrinogen (CitPAPPPISGGGYCitACit) set forth in SEQ ID NO: 2, cit-collagen (ACitGLTGCitPGDAK) set forth in SEQ ID NO: 21 and cit-vimentin (SAVRACitSSVPGVRK) set forth in SEQ ID NO: 22. Sera were diluted in PBS to obtain a reactivity of approximately 50% binding OD under standard assay conditions. Increasing concentrations of Cit-ME peptide were added to the diluted sera and incubated for two hours at room temperature. Specimens were then assayed in ELISA plates coated with each one of the peptides. […] Thus, ACPA have binding specificity to Cit-ME.

CD4+IL-17+ T cells = CD4+IL-17+ T cells in the spleen of AIA rats, FACS; assay type: in vivo, rat
Method: Distribution of pathogenic CD4^+IL-17^+ T cells in the spleen of experimental rats was assessed by FACS.

[1] = system: anti citrullinated filaggrin ACPA; assay: Peptide inhibition assay in ELISA, plates coated with cit-filaggrin; parameters: species or system human; details: sera of ACPA-positive RA patients diluted to about 50% binding OD, 2 h preincubation at room temperature
Method: as §1

AIA rats = assay: Adjuvant-Induced Arthritis (AIA) in rats, paw swelling and clinical signs; assay type: in vivo, rat
IL-17 = IL-17 mRNA expression in the spleen of AIA rats, RT-PCR; assay type: in vivo, rat; details: spleens of AIA rats, 8 rats per treatment, compared to control
Method: To validate the effect of the peptides on CD4^+IL-17^+ populations as determined by FACS, the expression of IL-17 in the spleen was evaluated using RT-PCR. cDNA was extracted from the spleens of 8 rats per treatment (including control), and gene expression of IL-17 was assessed using the following RT-PCR primers: forward 5′-TGGCGGTTCTCCTTCAGTC-3′ (SEQ ID NO: 17) and reverse 5′-[…]-3′ (SEQ ID NO: 18). […] Thus, the RT-PCR data was in line with the FACS analyses.

[2] = system: CD4+CD25+FoxP3+ regulatory T cells; assay: Regulatory T cells in splenocytes of AIA rats, FACS; assay type: in vivo, rat
Source text: Splenocytes from rats at day 28 post disease induction were stained with anti-CD4-FITC, anti-CD25-APC, and anti-Foxp3-PE (eBioscience) mAbs and analyzed by FACS. In representative outputs as shown in FIG. 12A-C, Regulatory T cells subpopulation was higher in Cit-ME treated rats (9%), compared to 7% and 6.2% in Non-Cit-ME peptide and untreated rats, respectively. Statistical analysis of the results is shown in FIG. 12D (Cit-ME n=9, Non-Cit-ME n=11, untreated rats n=7).

pathogenic Th17 cells = assay: Pathogenic Th17 cell proportion in PBMC of RA patients, FACS; assay type: cell-based, human; details: 48 hours, PMA, ionomycin and brefeldin A in last 4 hours, compared with non-citrullinated matched peptide
Method: To assess ability of the citrullinated peptides to affect the pathogenic Th17 cells population proportion, peripheral blood mononuclear cells of rheumatoid arthritis patients were cultured in the presence of citrullinated peptides, non-citrullinated peptides and Infliximab for 48 hours. In the last 4 hours phorbol12-myristate 13-acetate (PMA), ionomycin and brefeldin A were added to the culture. Thereafter cells were stained with antibodies against CD3 and IL-17. As shown in FIGS. 7A-7H, significant down-regulation in the mean percentage of pathogenic Th17 cells was detected following incubation with the citrullinated peptides: decrease of 21% (Fil-Cit; E), 5% (β-Fib-Cit; F), and 26% (Cit-ME; G) as compared with the non-citrullinated matched peptides (FIG. 7A-7C, respectively). Mean percentage of pathogenic Th17 cells in the presence of Infliximab was decreased by 48% (FIG. 7H) as compared to medium (FIG. 7D).

amount of peptide sufficient to impair binding of specific ACPA to cit-collagen (anti cit-collagen ACPA): 10 to 200 µg | amount of peptide sufficient to impair binding of specific ACPA to cit-filaggrin [1]: 10 to 200 µg
Substance: VCitLCitSSVESTCitGRSCitPAPPPACitGLT [Cit-ME]
population of CD4+IL-17+-expressing splenocytes, statistical analysis (CD4+IL-17+ T cells; AIA rats, n=8, untreated 1.14±0.2): 0.68±0.1 | IL-17+ population, representative results (CD4+IL-17+ T cells; spleen of AIA rats, untreated 2%): 0.6% | mean paw swelling / arthritis signs (AIA rats; AIA Lewis female rats, 10 subcutaneous injections of 300 μg/rat on alternate days from day 7, up to day 21 post disease induction): significant reduced mean paw swelling | maximum value of mean paw diameter (AIA rats; AIA rats, 8 subcutaneous injections of 300 μg per rat on alternate days from day 7, mean±SE, untreated 4.61±0.17 on day 14): 3.81±0.11 mm | arthritis severity / symptoms at day 27 after disease induction (AIA rats; AIA rats, 10 subcutaneous injections of 300 μg/rat on alternate days, compared with β-Fib-Cit and untreated rats): reduced the arthritis severity | mean relative expression level of IL-17 mRNA (IL-17): significant reduction | percentage of CD4+CD25+FoxP3+ regulatory T cells subset, statistical analysis ([2]; spleens of AIA rats, day 28, untreated 7.17±0.31): 8.13±0.17% | Regulatory T cells subpopulation, representative outputs ([2]; splenocytes of AIA rats, day 28 post disease induction, untreated 6.2%): 9% | decrease in mean percentage of pathogenic Th17 cells (pathogenic Th17 cells): 26%
